From EP3875456A1, “HETERO-BIFUNCTIONAL PROTEOLYSIS-TARGETING CHIMERAS (PROTACS) FOR THE SELECTIVE DEGRADATION OF FK506-BINDING PROTEINS (FKBPS)” (Technische Universität Darmstadt, priority 2020, dated 2021) come the findings set out here.

This assay has as its target T1, FKBP51FK1 (Homo sapiens, UniProt Q13451).
T1 construct: FKBP51FK1
T1 sequence (Q13451 42-130 limits assumed): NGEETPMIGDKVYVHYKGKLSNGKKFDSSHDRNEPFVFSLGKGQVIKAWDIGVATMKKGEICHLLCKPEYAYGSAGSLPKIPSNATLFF
Briefly: Binding affinities of exemplary compounds to FKBP51. The method, then: Binding to FKBP51 is an important prerequisite in order to allow degradation of FKBP51. Thus, the binding affinities of the newly synthesized molecules (table 1) were tested.
Turning to `COc1ccc(CC[C@H](OC(=O)[C@H]2CCCCN2C(=O)[C@H](c2cc(OC)c(OC)c(OC)c2)C2CCCCC2)c2cccc(OCc3cn(CCOCC(=O)N[C@H](C(=O)N4C[C@H](O)C[C@H]4C(=O)NCc4ccc(-c5scnc5C)cc4)C(C)(C)C)nn3)c2)cc1OC` (stereo in doubt) [MTQ199, (S)-(R)-3-(3,4-Dimethoxyphenyl)-1-(3-((1-(2-(2-(((S)-1-((2S,4R)-4-hydroxy-2-((4-(4-methylthiazol-5-yl)benzyl)carbamoyl)pyrrolidin-1-yl)-3,3-dimethyl-1-oxobutan-2-yl)amino)-2-oxoethoxy)ethyl)-1H-1,2,3-triazol-4-yl)methoxy)phenyl)propyl 1-((S)-2-cyclohexyl-2-(3,4,5-trimethoxyphenyl)acetyl)piperidine-2-carboxylate], the inhibitory constant (Ki) – broadly, the equilibrium dissociation constant of an inhibitor or competing ligand from its target – stood at 25 ± 6 nM.

Consider `C#CCOc1cccc([C@H](CCc2ccc(OC)c(OC)c2)OC(=O)[C@H]2CCCCN2C(=O)[C@H](c2cc(OC)c(OC)c(OC)c2)C2CCCCC2)c1` (stereo in doubt) [Molecule (9), (S)-(R)-3-(3,4-Dimethoxyphenyl)-1-(3-(prop-2-yn-1-yloxy)phenyl)propyl 1-((S)-2-cyclohexyl-2-(3,4,5-trimethoxyphenyl)acetyl)piperidine-2-carboxylate], for which affinity was put at a Ki of 32 ± 7 nM.

For the compound `C#CCOc1cc(CCC(OC(=O)C2CCCCN2C(=O)[C@H](c2cc(OC)c(OC)c(OC)c2)C2CCCCC2)c2cccc(OC)c2)ccc1OC` (stereo in doubt) [Molecule (10), (S)-(R)-3-(4-methoxy-3-(prop-2-yn-1-yloxy)phenyl)-1-(3-methoxyphenyl)propyl 1-((S)-2-cyclohexyl-2-(3,4,5-trimethoxyphenyl)acetyl)piperidine-2-carboxylate], the Ki was 149 ± 39 nM.

As to `COc1ccc(CC[C@@H](OC(=O)[C@@H]2CCCCN2C(=O)[C@H](c2cc(OC)c(OC)c(OC)c2)C2CCCCC2)c2cccc(OCc3cn(CCOCCOCC(=O)N[C@H](C(=O)N4C[C@H](O)C[C@H]4C(=O)NCc4ccc(-c5scnc5C)cc4)C(C)(C)C)nn3)c2)cc1OC` [MTQ200], the affinity, expressed as Ki, was 24 ± 7 nM.

`COc1ccc(CC[C@H](OC(=O)[C@H]2CCCCN2C(=O)[C@H](c2cc(OC)c(OC)c(OC)c2)C2CCCCC2)c2cccc(OCc3cn(CCOCCOCCOCC(=O)N[C@H](C(=O)N4C[C@H](O)C[C@H]4C(=O)NCc4ccc(-c5scnc5C)cc4)C(C)(C)C)nn3)c2)cc1OC` [MTQ201, (S)-(R)-3-(3,4-Dimethoxyphenyl)-1-(3-((1-((S)-13-((2S,4R)-4-hydroxy-2-((4-(4-methylthiazol-5-yl)benzyl)carbamoyl)pyrrolidine-1-carbonyl)-14,14-dimethyl-11-oxo-3,6,9-trioxa-12-azapentadecyl)-1H-1,2,3-triazol-4-yl)methoxy)phenyl)propyl 1-((S)-2-cyclohexyl-2-(3,4,5-trimethoxyphenyl)acetyl)piperidine-2-carboxylate] registered a Ki of 23 ± 7 nM.

`COc1ccc(CC[C@H](OC(=O)[C@H]2CCCCN2C(=O)[C@H](c2cc(OC)c(OC)c(OC)c2)C2CCCCC2)c2cccc(OCc3cn(CCOCCOCCOCCOCCOCC(=O)N[C@H](C(=O)N4C[C@H](O)C[C@H]4C(=O)NCc4ccc(-c5scnc5C)cc4)C(C)(C)C)nn3)c2)cc1OC` [MTQ203, (S)-(R)-3-(3,4-Dimethoxyphenyl)-1-(3-((1-((S)-19-((2S,4R)-4-hydroxy-2-((4-(4-methylthiazol-5-yl)benzyl)carbamoyl)pyrrolidine-1-carbonyl)-20,20-dimethyl-17-oxo-3,6,9,12,15-pentaoxa-18-azahenicosyl)-1H-1,2,3-triazol-4-yl)methoxy)phenyl)propyl 1-((S)-2-cyclohexyl-2-(3,4,5-trimethoxyphenyl)acetyl)piperidine-2-carboxylate]: the inhibitory constant (Ki) came out at 12 ± 3 nM.

Compound `COc1ccc(CC[C@@H](OC(=O)[C@@H]2CCCCN2C(=O)[C@H](c2cc(OC)c(OC)c(OC)c2)C2CCCCC2)c2cccc(OCc3cn(CCOCC(=O)Nc4cccc5c4C(=O)N(C4CCC(=O)NC4=O)C5=O)nn3)c2)cc1OC` (stereo partly drawn) [MTQ204, (25)-(1R)-3-(3,4-Dimethoxyphenyl)-1-(3-((1-(2-(2-((2-(2,6-dioxopiperidin-3-yl)-1,3-dioxoisoindolin-4-yl)amino)-2-oxoethoxy)ethyl)-1H-1,2,3-triazol-4-yl)methoxy)phenyl)propyl1-((S)-2-cyclohexyl-2-(3,4,5-trimethoxyphenyl)acetyl)piperidine-2-carboxylate] showed a Ki of 19 ± 5 nM.

For the compound `COc1ccc(CC[C@@H](OC(=O)[C@@H]2CCCCN2C(=O)[C@H](c2cc(OC)c(OC)c(OC)c2)C2CCCCC2)c2cccc(OCc3cn(CCOCCOCC(=O)Nc4cccc5c4C(=O)N(C4CCC(=O)NC4=O)C5=O)nn3)c2)cc1OC` (stereo partly drawn) [MTQ205, (2S)-(1R)-3-(3,4-Dimethoxyphenyl)-1-(3-((1-(2-(2-(2-((2-(2,6-dioxopiperidin-3-yl)-1,3-dioxoisoindolin-4-yl)amino)-2-oxoethoxy)ethoxy)ethyl)-1H-1,2,3-triazol-4-yl)methoxy)phenyl)propyl 1-((S)-2-cyclohexyl-2-(3,4,5-trimethoxyphenyl)acetyl)piperidine-2-carboxylate], the affinity, expressed as Ki, was 16 ± 5 nM.

Take `COc1ccc(CC[C@@H](OC(=O)[C@@H]2CCCCN2C(=O)[C@H](c2cc(OC)c(OC)c(OC)c2)C2CCCCC2)c2cccc(OCc3cn(CCOCCOCCOCC(=O)Nc4cccc5c4C(=O)N(C4CCC(=O)NC4=O)C5=O)nn3)c2)cc1OC` (stereo partly drawn) [MTQ206, (2S)-(1R)-3-(3,4-Dimethoxyphenyl)-1-(3-((1-(2-(2-(2-(2-((2-(2,6-dioxopiperidin-3-yl)-1,3-dioxoisoindolin-4-yl)amino)-2-oxoethoxy)ethoxy)ethoxy)ethyl)-1H-1,2,3-triazol-4-yl)methoxy)phenyl)propyl 1-((S)-2-cyclohexyl-2-(3,4,5-trimethoxyphenyl)acetyl)piperidine-2-carboxylate]: the Ki is 22 ± 6 nM.

For `COc1ccc(CC[C@@H](OC(=O)[C@@H]2CCCCN2C(=O)[C@H](c2cc(OC)c(OC)c(OC)c2)C2CCCCC2)c2cccc(OCc3cn(CCOCCOCCOCCOCC(=O)Nc4cccc5c4C(=O)N(C4CCC(=O)NC4=O)C5=O)nn3)c2)cc1OC` (stereo partly drawn) [MTQ207, (2S)-(1R)-3-(3,4-Dimethoxyphenyl)-1-(3-((1-(14-((2-(2,6-dioxopiperidin-3-yl)-1,3-dioxoisoindolin-4-yl)amino)-14-oxo-3,6,9,12-tetraoxatetradecyl)-1H-1,2,3-triazol-4-yl)methoxy)phenyl)propyl 1-((S)-2-cyclohexyl-2-(3,4,5-trimethoxyphenyl)acetyl)piperidine-2-carboxylate], the Ki stood at 18 ± 4 nM.

Consider `COc1ccc(CC[C@@H](OC(=O)[C@@H]2CCCCN2C(=O)[C@H](c2cc(OC)c(OC)c(OC)c2)C2CCCCC2)c2cccc(OCc3cn(CCOCCOCCOCCOCCOCC(=O)Nc4cccc5c4C(=O)N(C4CCC(=O)NC4=O)C5=O)nn3)c2)cc1OC` (stereo partly drawn) [MTQ208, (2S)-(1R)-3-(3,4-Dimethoxyphenyl)-1-(3-((1-(17-((2-(2,6-dioxopiperidin-3-yl)-1,3-dioxoisoindolin-4-yl)amino)-17-oxo-3,6,9,12,15-pentaoxaheptadecyl)-1H-1,2,3-triazol-4-yl)methoxy)phenyl)propyl 1-((S)-2-cyclohexyl-2-(3,4,5-trimethoxyphenyl)acetyl)piperidine-2-carboxylate], for which the Ki came to 5 ± 1 nM.

The compound `COc1cccc([C@H](CCc2ccc(OCc3cn(CCOCC(=O)N[C@H](C(=O)N4C[C@H](O)C[C@H]4C(=O)NCc4ccc(-c5scnc5C)cc4)C(C)(C)C)nn3)c(OC)c2)OC(=O)[C@H]2CCCCN2C(=O)[C@H](c2cc(OC)c(OC)c(OC)c2)C2CCCCC2)c1` [MTQ328, (S)-(R)-3-(4-((1-(2-(2-(((S)-1-((2S,4R)-4-Hydroxy-2-((4-(4-methylthiazol-5-yl)benzyl)carbamoyl)pyrrolidin-1-yl)-3,3-dimethyl-1-oxobutan-2-yl)amino)-2-oxoethoxy)ethyl)-1H-1,2,3-triazol-4-yl)methoxy)-3-methoxyphenyl)-1-(3-methoxyphenyl)propyl 1-((S)-2-cyclohexyl-2-(3,4,5-trimethoxyphenyl)acetyl)piperidine-2-carboxylate] displayed an inhibition constant (Ki) of 47 ± 19 nM.

As to `COc1cccc([C@H](CCc2ccc(OCc3cn(CCOCCOCC(=O)N[C@H](C(=O)N4C[C@H](O)C[C@H]4C(=O)NCc4ccc(-c5scnc5C)cc4)C(C)(C)C)nn3)c(OC)c2)OC(=O)[C@H]2CCCCN2C(=O)[C@H](c2cc(OC)c(OC)c(OC)c2)C2CCCCC2)c1` [MTQ329, (S)-(R)-3-(4-((1-(2-(2-(2-(((S)-1-((2S,4R)-4-Hydroxy-2-((4-(4-methylthiazol-5-yl)benzyl)carbamoyl)pyrrolidin-1-yl)-3,3-dimethyl-1-oxobutan-2-yl)amino)-2-oxoethoxy)ethoxy)ethyl)-1H-1,2,3-triazol-4-yl)methoxy)-3-methoxyphenyl)-1-(3-methoxyphenyl)propyl 1-((S)-2-cyclohexyl-2-(3,4,5-trimethoxyphenyl)acetyl)piperidine-2-carboxylate], the Ki came to 60 ± 16 nM.

With `COc1cccc([C@H](CCc2ccc(OCc3cn(CCOCCOCCOCC(=O)N[C@H](C(=O)N4C[C@H](O)C[C@H]4C(=O)NCc4ccc(-c5scnc5C)cc4)C(C)(C)C)nn3)c(OC)c2)OC(=O)[C@H]2CCCCN2C(=O)[C@H](c2cc(OC)c(OC)c(OC)c2)C2CCCCC2)c1` [MTQ330, (S)-(R)-3-(4-((1-((S)-13-((2S,4R)-4-Hydroxy-2-((4-(4-methylthiazol-5-yl)benzyl)carbamoyl)pyrrolidine-1-carbonyl)-14,14-dimethyl-11-oxo-3,6,9-trioxa-12-azapentadecyl)-1H-1,2,3-triazol-4-yl)methoxy)-3-methoxyphenyl)-1-(3-methoxyphenyl)propyl 1-((S)-2-cyclohexyl-2-(3,4,5-trimethoxyphenyl)acetyl)piperidine-2-carboxylate], the inhibition constant (Ki) is 86 ± 26 nM.
